In ChEMBL document CHEMBL1154806, “Indole derivatives from a marine sponge-derived yeast as DPPH radical scavengers” (J Nat Prod, 2009):
The source made the active and inactive calls. The calls are words filed in the database; no cut-off is given here.

Key:
Format in all cases: functional
[1] = Antioxidant activity assessed as oxygen radical scavenging activity by ORAC assay
[2] = test system: Radical scavenging activity; assay: Antioxidant activity assessed as DPPH radical scavenging activity at 300 uM after 48 hrs by spectrophotometry
[3] = Antioxidant activity assessed as ABTS radical scavenging activity

Compound	Activity [1]	Activity [2] [%]	Activity [3]
OCCc1ccc(O)cc1	Active	26	
Cc1cc(C(C)(C)C)c(O)c(C(C)(C)C)c1		86	
O=C(CCCCO)OCCc1c[nH]c2ccccc12		47	
CC(O)C(=O)OCCc1c[nH]c2ccccc12 (stereo not drawn)		33	
OCCc1c[nH]c2ccccc12		52	Active
O=C1N[C@@H](Cc2ccc(O)cc2)C(=O)N2CCC[C@@H]12		16	
